The text below walks through data of patent publication US20060275505A1, “Method and composition for increasing the alkalinity of the body” (priority 2005, published 2006).

The structures appear in SMILES notation.

For this assay, the system named is acid reflux. Description: Example 13 case study, acid reflux. It counts as in vivo, human. Conditions: patient history. The text has this:
A person had suffered from acid reflux for two years. The reflux was severe enough to wake them once or twice every night, and they slept in an inclined bed. […] The patient drank a small glass of water with Alka Vita each night.
Consider `COc1ccc2[nH]c([S@@+]([O-])Cc3ncc(C)c(OC)c3C)nc2c1` [Nexium], for which the “relief of acid reflux by drugs tried before” value was “no relief”. Under `NC(N)=Nc1nc(CSCCC(N)=NS(N)(=O)=O)cs1` [Pepcid AC] stands “no relief”; under `COc1ccc2[nH]c([S+]([O-])Cc3ncc(C)c(OC)c3C)nc2c1` (stereo not shown) [Prilosec], “no relief”; under `COc1cc(N)c(Cl)cc1C(=O)NC1CCN(CCCOc2ccc(F)cc2)CC1OC` (stereo not shown) [Propulsid], “no relief”.
